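Five concentrations, 48 hours, 96-well plates. GI50 is the concentration that inhibits growth by half. TGI: concentration producing complete growth inhibition.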 *1 amine or outer side, *2 acyl side, *3 side chain or, on linkers, in order; H or OH if unused. Where a SMILES comes first, the peptide text is derived from it. Bridges are numbered along the chain shown (N, C = ends). Roman numbers before positions name the chains, in order. [ ]: non-standard residue; d: D form. Actinocin(9to1) = Cc1c2oc3c(C)ccc(C(=O)[*:1])c3nc-2c(C(=O)[*:2])c(N)c1=O; Hyp = O=C(O)[CH]1C[CH](O)CN1; NMeV = CN[CH](C(=O)O)C(C)C; Sar = CNCC(=O)O
What was measured:
Experiment in all cases: growth of human tumour cells (NCI), 48 h
MOLT-4 leukemia = tested on: MOLT-4 leukemia
CCRF-CEM leukemia = tested on: CCRF-CEM leukemia
SNB-19 CNS = tested on: SNB-19 CNS
EKVX NSCLC = tested on: EKVX NSCLC
UACC-257 melanoma = tested on: UACC-257 melanoma
UO-31 renal = tested on: UO-31 renal
M14 melanoma = tested on: M14 melanoma
NCI-H460 lung = tested on: NCI-H460 lung
SN12C renal = tested on: SN12C renal
SK-MEL-5 melanoma = tested on: SK-MEL-5 melanoma

| Structure (SMILES) | TGI (MOLT-4 leukemia) [µM] | TGI (CCRF-CEM leukemia) [µM] | TGI (SNB-19 CNS) [µM] | TGI (EKVX NSCLC) [µM] | TGI (UACC-257 melanoma) [µM] | TGI (UO-31 renal) [µM] | TGI (M14 melanoma) [µM] | TGI (NCI-H460 lung) [µM] | TGI (SN12C renal) [µM] | TGI (SK-MEL-5 melanoma) [µM] | GI50 (MOLT-4 leukemia) [µM] | GI50 (CCRF-CEM leukemia) [µM] | GI50 (SNB-19 CNS) [µM] | GI50 (EKVX NSCLC) [µM] | GI50 (UACC-257 melanoma) [µM] | GI50 (UO-31 renal) [µM] | GI50 (M14 melanoma) [µM] | GI50 (NCI-H460 lung) [µM] | GI50 (SN12C renal) [µM] | GI50 (SK-MEL-5 melanoma) [µM] |
| --- | --- | --- | --- | --- | --- | --- | --- | --- | --- | --- | --- | --- | --- | --- | --- | --- | --- | --- | --- | --- |
| O=C(Nc1ccccc1Cl)c1ccc([N+](=O)[O-])cc1 | > 100 | > 100 | > 100 | > 100 | > 100 | > 100 | > 100 | > 100 | > 100 | > 100 |  |  |  |  |  |  |  |  |  |  |
| COC1=C(C)C(=O)C2=C(C1=O)C1C3CC4=C(C(=O)C(OC)=C(C)C4=O)C(CNC(=O)C(C)O)N3C(C#N)C(C2)N1C (stereo not given) | < 0.215 | 1.38 | 1.92 | 0.108 | 0.0102 | 0.731 | 0.0173 | 0.179 | 1.72 | < 0.01 |  |  |  |  |  |  |  |  |  |  |
| Cc1cc(OCCOCCC(F)(F)P(=O)(O)O)ccc1CCc1cnc2c(N)nc3cc(CCC(=O)O)ccc3c2c1 | > 100 | > 100 | > 100 | > 100 | > 100 | > 100 | > 100 | > 100 | > 100 | > 100 | > 100 | > 100 | > 100 | > 100 | > 100 | > 100 | > 100 | > 100 | > 100 | > 100 |
| CCn1c2c(c3ccccc31)[C@@H](c1ccc(Cl)cc1)CC1C(=O)N(c3ccccc3)C(=O)C21 (stereo not given in full) | > 100 | > 100 | > 100 | > 100 | > 100 | > 100 | > 100 | > 100 | > 100 | > 100 |  |  |  |  |  |  |  |  |  |  |
| O=C(c1cccnc1)N1N=C(c2ccccc2)CC1(O)c1cc(F)c(Cl)cc1Cl (stereo not given) | > 100 | > 100 | > 100 | > 100 | 39.7 | > 100 | 53.7 | 44.7 | 39.6 | 27.6 |  |  |  |  |  |  |  |  |  |  |
| Cc1c(C)c(C)c(-n2c(=O)n(C)c(=O)n2-c2cc(C(C)(C)C)cc(C(C)(C)C)c2O)c(C)c1C | 19.3 | 30.8 | 20.9 | 22.8 | 23.9 | 14.1 | 25.9 | 27.1 | 21.7 | 18.5 |  |  |  |  |  |  |  |  |  |  |
| COC1=C(Cl)C(=O)c2c(O)ccc(O)c2C1=O | 0.489 | 0.213 | 17.1 | 10.6 | 3.41 | 3.71 | 1.28 | 24.4 | 2.74 | 2.75 |  |  |  |  |  |  |  |  |  |  |
| CCOC1NC(=O)Oc2cc3ccccc3cc21 (stereo not given) | > 100 | > 100 | > 100 | > 100 | > 100 | > 100 | > 100 | > 100 | > 100 | > 100 |  |  |  |  |  |  |  |  |  |  |
| C=CCN1/C(=C2\SC(=S)N(c3ccc(C)cc3)C2=O)Sc2c1ncn(C)c2=O | > 100 | > 100 | > 100 | > 100 | > 100 | > 100 | > 100 | > 100 | > 100 | > 100 |  |  |  |  |  |  |  |  |  |  |
| O=C(O)c1c2c(cc3c1CC1(Cc4cc5c(cc4C1=O)CCC5)C3)CCC2 (stereo not given) | > 100 | > 100 | > 100 | > 100 | > 100 | > 100 | > 100 | > 100 | > 100 | > 100 |  |  |  |  |  |  |  |  |  |  |
| Cc1c2oc3c(C)ccc(C(=O)NC4C(=O)NC(C(C)C)C(=O)N5CC(O)CC5C(=O)N(C)CC(=O)N(C)C(C(C)C)C(=O)OC4C)c3nc-2c(C(=O)NC2C(=O)NC(C(C)C)C(=O)N3CC(O)CC3C(=O)N(C)CC(=O)N(C)C(C(C)C)C(=O)OC2C)c(N)c1=O (stereo not given) (I: TV[Hyp][Sar][NMeV] / II: TV[Hyp][Sar][NMeV]; ester I:1-I:C, II:1-II:C; linker I:N-II:N via Actinocin(9to1); configuration not given here) | > 1 | > 1 | > 1 | > 1 | > 1 | > 1 | > 1 | > 1 | > 1 | > 1 |  |  |  |  |  |  |  |  |  |  |
| CC(C)(C)NC(=O)/C(=C\Sc1ccccc1)c1ccccc1 | > 100 | > 100 | > 100 | > 100 | > 100 | > 100 | > 100 | > 100 | > 100 | > 100 |  |  |  |  |  |  |  |  |  |  |
| CCOC(=O)C(Cc1ccccc1)NC(=O)c1[nH]cnc1/N=N/N(C)C (stereo not given) | > 100 | > 100 | > 100 | > 100 | > 100 | > 100 | > 100 | > 100 | > 100 | > 100 |  |  |  |  |  |  |  |  |  |  |
| O=c1[nH]nc(Cc2ccccc2)n1/N=C/c1cccnc1 | > 100 | > 100 | > 100 | > 100 | > 100 | > 100 | > 100 | > 100 | > 100 | > 100 |  |  |  |  |  |  |  |  |  |  |
| NC(=O)CC(N)C(=O)NC(Cc1ccccc1)C(=O)NC(Cc1ccccc1)NC(=O)C(Cc1c[nH]c2ccccc12)C(=O)O (stereo not given) | > 100 | > 100 | > 100 | > 100 | > 100 | > 100 | > 100 | > 100 | > 100 | > 100 |  |  |  |  |  |  |  |  |  |  |
| c1ccc(Nc2nn3c(CCCCCCCCc4nnc5sc(Nc6ccccc6)nn45)nnc3s2)cc1 | 41.7 | 63.9 | > 100 | > 100 | > 100 | 69.9 | 35.2 | > 100 | > 100 | 24.6 |  |  |  |  |  |  |  |  |  |  |
| N/C(=N\Nc1ccc(Cl)cc1)c1cnccn1 | > 100 | > 100 | > 100 | > 100 | > 100 | > 100 | > 100 | > 100 | > 100 | 54.6 |  |  |  |  |  |  |  |  |  |  |

From PubChem BioAssay (NCI)
